Data from patent US20250188092A1, “RIFAMYCIN ANALOGS” (THE REGENTS OF THE UNIVERSITY OF MICHIGAN, priority 2021, published 2025).
≈ marks a conversion by molar mass, not a printed value. Read-outs that look alike come from different tables or passages of the source.

Assays:
[1] = tested on: DPX2 cells
[2] = tested on: MTB H37Rv ATCC 27294; experiment: MIC, microplate Alamar Blue assay (MABA); format: cell-based, Mycobacterium tuberculosis; conditions: for MIC90: Mycobacterium tuberculosis, MTB H37Rv ATCC 27294, microplate Alamar Blue assay, lowest concentration giving ≥90% reduction in fluorescence

| Compound | DPX2 Viability @ 6.25 μM ([1]; 24 h) | DPX2 Viability @ 25 μM ([1]; human) | MIC90 MABA Rel to RMP [2] | MIC90 [2] | DPX2 Viability @ 6.25 μM ([1]; human, 24 h) | DPX2 Viability @ 25 μM ([1]; human, 24 h, 25 μM) |
| --- | --- | --- | --- | --- | --- | --- |
| CO[C@H]1/C=C/O[C@@]2(C)Oc3c(C)c(O)c4c(=O)c(c5oc6cc(N7CCN(CC(C)C)CC7)cc(N7CCN(CC(C)C)CC7)c6nc-5c4c3C2=O)NC(=O)/C(C)=C\C=C\[C@H](C)[C@H](O)[C@@H](C)[C@@H](O)[C@@H](C)[C@H](OC(C)=O)[C@@H]1C [Compound 17u, 7S,9E,11S,12R,13S,14R,15R,16R,17S,18S,19E,21Z)-2,15,17-trihydroxy-11-methoxy-3,7,12,14,16,18,22-heptamethyl-30,32-bis[4-(2-methylpropyl)piperazin-1-yl]-6,23,37-trioxo-8,27,38-trioxa-24,34-diazahexacyclo[23.11.1.1^4,7.0^5,36.0^26,35.0^28,33]octatriaconta-1,3,5(36)9,19,21,25,28,30,32,34-undecaen-13-yl acetate] | 106% | 90% | – | – | – | – |
| CO[C@H]1/C=C/O[C@@]2(C)Oc3c(C)c(O)c4c(=O)c(c5oc6cc(N7CCN(CCn8ccnc8)CC7)cc(C)c6nc-5c4c3C2=O)NC(=O)/C(C)=C\C=C\[C@H](C)[C@H](O)[C@@H](C)[C@@H](O)[C@@H](C)[C@H](OC(C)=O)[C@@H]1C [Compound 26c, (7S,9E,11S,12R,13S,14R,15R,16R,17S,18S,19E,21Z)-2,15,17-trihydroxy-30-{4-[2-(1H-imidazol-1-yl)ethyl]piperazin-1-yl}-11-methoxy-3,7,12,14,16,18,22,32-octamethyl-6,23,37-trioxo-8,27,38-trioxa-24,34-diazahexacyclo[23.11.1.1^4,7.0^5,36.0^26,35.0^28,33]octatriaconta-1(36)2,4,9,19,21,25,28,30,32,34-undecaen-13-yl acetate] | 108% | 96% | – | – | – | – |
| CO[C@H]1/C=C/O[C@@]2(C)Oc3c(C)c(O)c4c(=O)c(c5oc6cc(N7CCN(C(C)=O)CC7)cc(C)c6nc-5c4c3C2=O)NC(=O)/C(C)=C\C=C\[C@H](C)[C@H](O)[C@@H](C)[C@@H](O)[C@@H](C)[C@H](OC(C)=O)[C@@H]1C [Compound 26d, (7S,9E,11S,12R,13S,14R,15R,16R,17S,18S,19E,21Z)-30-(4-Acetylpiperazin-1-yl)-2,15,17-trihydroxy-11-methoxy-3,7,12,14,16,18,22,32-octamethyl-6,23,37-trioxo-8,27,38-trioxa-24,34-diazahexacyclo[23.11.1.1^4,7.0^5,36.0^26,35.0^28,33]octatriaconta-1(36)2,4,9,19,21,25,28,30,32,34-undecaen-13-yl acetate] | 106% | 88% | 0.35 | 9.4 nM | – | – |
| CCC(=O)N1CCN(c2cc(C)c3nc4c5c6c7c(C)c(O)c5c(=O)c(c-4oc3c2)NC(=O)/C(C)=C\C=C\[C@H](C)[C@H](O)[C@@H](C)[C@@H](O)[C@@H](C)[C@H](OC(C)=O)[C@H](C)[C@@H](OC)/C=C/O[C@@](C)(O7)C6=O)CC1 [Compound 26e, (7S,9E,11S,12R,13S,14R,15R,16R,17S,18S,19E,21Z)-2,15,17-Trihydroxy-11-methoxy-3,7,12,14,16,18,22,32-octamethyl-6,23,37-trioxo-30-(4-propanoylpiperazin-1-yl)-8,27,38-trioxa-24,34-diazahexacyclo[23.11.1.1^4,7.0^5,36.0^26,35.0^28,33]octatriaconta-1(36)2,4,9,19,21,25,28,30,32,34-undecaen-13-yl acetate] | 101% | 97% | 0.35 | 9.4 nM | – | – |
| CO[C@H]1/C=C/O[C@@]2(C)Oc3c(C)c(O)c4c(=O)c(c5oc6cc(N7CCN(C(=O)C(C)(C)C)CC7)cc(C)c6nc-5c4c3C2=O)NC(=O)/C(C)=C\C=C\[C@H](C)[C@H](O)[C@@H](C)[C@@H](O)[C@@H](C)[C@H](OC(C)=O)[C@@H]1C [Compound 26f, (7S,9E,11S,12R,13S,14R,15R,16R,17S,18S,19E,21Z)-30-[4-(2,2-Dimethylpropanoyl)piperazin-1-yl]-2,15,17-trihydroxy-11-methoxy-3,7,12,14,16,18,22,32-octamethyl-6,23,37-trioxo-8,27,38-trioxa-24,34-diazahexacyclo[23.11.1.1^4,7.0^5,36.0^26,35.0^28,33]octatriaconta-1(36)2,4,9,19,21,25,28,30,32,34-undecaen-13-yl acetate] | 111% | 102% | 0.17 | 4.6 nM | – | – |
| COC(=O)N1CCN(c2cc(C)c3nc4c5c6c7c(C)c(O)c5c(=O)c(c-4oc3c2)NC(=O)/C(C)=C\C=C\[C@H](C)[C@H](O)[C@@H](C)[C@@H](O)[C@@H](C)[C@H](OC(C)=O)[C@H](C)[C@@H](OC)/C=C/O[C@@](C)(O7)C6=O)CC1 [Compound 26g, Methyl 4-[(7S,9E,11S,12R,13S,14R,15R,16R,17S,18S,19E,21Z)-13-(acetyloxy)-2,15,17-trihydroxy-11-methoxy-3,7,12,14,16,18,22,32-octamethyl-6,23,37-trioxo-8,27,38-trioxa-24,34-diazahexacyclo[23.11.1.1^4,7.0^5,36.0^26,35.0^28,33]octatriaconta-1(36)2,4,9,19,21,25,28,30,32,34-undecaen-30-yl]piperazine-1-carboxylate] | 111% | 105% | 0.18 | 5 nM (≈ 4.71 ng/mL) | – | – |
| CCOC(=O)N1CCN(c2cc(C)c3nc4c5c6c7c(C)c(O)c5c(=O)c(c-4oc3c2)NC(=O)/C(C)=C\C=C\[C@H](C)[C@H](O)[C@@H](C)[C@@H](O)[C@@H](C)[C@H](OC(C)=O)[C@H](C)[C@@H](OC)/C=C/O[C@@](C)(O7)C6=O)CC1 [Compound 26h, Ethyl 4-[(7S,9E,11S,12R,13S,14R,15R,16R,17S,18S,19E,21Z)-13-(acetyloxy)-2,15,17-trihydroxy-11-methoxy-3,7,12,14,16,18,22,32-octamethyl-6,23,37-trioxo-8,27,38-trioxa-24,34-diazahexacyclo[23.11.1.1^4,7.0^5,36.0^26,35.0^28,33]octatriaconta-1(36)2,4,9,19,21,25,28,30,32,34-undecaen-30-yl]piperazine-1-carboxylate] | 118% | 110% | 0.18 | 4.9 nM (≈ 4.68 ng/mL) | – | – |
| CO[C@H]1/C=C/O[C@@]2(C)Oc3c(C)c(O)c4c(=O)c(c5oc6cc(N7CCN(C(=O)OC(C)(C)C)CC7)cc(C)c6nc-5c4c3C2=O)NC(=O)/C(C)=C\C=C\[C@H](C)[C@H](O)[C@@H](C)[C@@H](O)[C@@H](C)[C@H](OC(C)=O)[C@@H]1C [Compound 26i, tert-Butyl 4-[(7S,9E,11S,12R,13S,14R,15R,16R,17S,18S,19E,21Z)-13-(acetyloxy)-2,15,17-trihydroxy-11-methoxy-3,7,12,14,16,18,22,32-octamethyl-6,23,37-trioxo-8,27,38-trioxa-24,34-diazahexacyclo[23.11.1.1^4,7.0^5,36.0^26,35.0^28,33]octatriaconta-1(36)2,4,9,19,21,25,28,30,32,34-undecaen-30-yl]piperazine-1-carboxylate] | 120% | 102% | 0.17 | 4.7 nM (≈ 4.62 ng/mL) | – | – |
| CO[C@H]1/C=C/O[C@@]2(C)Oc3c(C)c(O)c4c(=O)c(c5oc6cc(N7CCN(CCCCCCO[C@@H]8COc9nc([N+](=O)[O-])cn9C8)CC7)cc(C)c6nc-5c4c3C2=O)NC(=O)/C(C)=C\C=C\[C@H](C)[C@H](O)[C@@H](C)[C@@H](O)[C@@H](C)[C@H](OC(C)=O)[C@@H]1C [Compound 29e, (7S,9E,11S,12R,13S,14R,15R,16R,17S,18S,19E,21Z)-2,15,17-Trihydroxy-11-methoxy-3,7,12,14,16,18,22,32-octamethyl-30-[4-(6-{[(6S)-2-nitro-5H,6H,7H-imidazo[2,1-b][1,3]oxazin-6-yl]oxy}hexyl)piperazin-1-yl]-6,23,37-trioxo-8,27,38-trioxa-24,34-diazahexacyclo[23.11.1.1^4,7.0^5,36.0^26,35.0^28,33]octatriaconta-1(36)2,4,9,19,21,25,28,30,32,34-undecaen-13-yl acetate] | 112% | 99% | 0.07 | 2 nM | – | – |
| CO[C@H]1/C=C/O[C@@]2(C)Oc3c(C)c(O)c4c(c3C2=O)C2=NC3(CCN(CC(C)C)CC3)NC2=C(NC(=O)/C(C)=C\C=C\[C@H](C)[C@H](O)[C@@H](C)[C@@H](O)[C@@H](C)[C@H](OC(C)=O)[C@@H]1C)C4=O [RFB, rifabutin, reference compound] | – | – | 0.09 | 2.4 nM (≈ 2.03 ng/mL) | 117% | 107% |
